Experimental data reported in ChEMBL document CHEMBL1157539, “Thousands of chemical starting points for antimalarial lead identification” (Nature, 2010).

These molecules were tested on Plasmodium falciparum (assay: GSK_TCMDC: Inhibition of Plasmodium falciparum 3D7 in whole erythrocytes, using parasite LDH activity as an index of growth.). Details: Plasmodium falciparum, 3D7.
Type: functional, organism-based
With `COc1cc2s/c(=N\C(=O)c3cccc([N+](=O)[O-])c3)n(C)c2cc1OC` the XC50 was 722 nM. With `CC(=O)Nc1cccc(C(=O)Nc2ccc(-c3cccc(-c4nc5cc(C(F)(F)F)ccc5[nH]4)c3)cc2)c1` the XC50 was 148 nM. `O=C(Nc1cccc(C(F)(F)F)c1)c1cccc(S(=O)(=O)NCC2CCCN2CC2CCCCC2)c1` (stereo not drawn) showed an XC50 of 1110 nM. Molecule `O=C(NC1CCC(CN2CCC(c3c[nH]c4ccccc34)CC2)CC1)c1[nH]c(=O)[nH]c(=O)c1F` (stereo not drawn) has an XC50 of 796 nM. `CCCc1cc(C(=O)N[C@@H](Cc2ccccc2)[C@H](O)CNC(C)C)c(F)c(N2CCCC2=O)c1` showed an XC50 of 943 nM. For `COc1cc2c(cc1OC)CN(CCCCc1ccc(NC(=O)c3cc(Cl)cc(Cl)c3)cc1)CC2`, the XC50 was 1200 nM. In the case of `CC(=O)Nc1ccc(CN2CCC(CNC(=O)c3cc(-c4cccc(C(F)(F)F)c4)cs3)C2)cc1` (stereo not drawn), the XC50 is reported as 1100 nM. `CC(=O)N[C@H](C(=O)Nc1ccc(-c2ccc(-c3nc4cc(C(F)(F)F)ccc4[nH]3)s2)cc1)C(C)C` showed an XC50 of 1030 nM. In the case of `Cc1cc(C2CCN(CCCCNC(=O)c3ccc(-c4ccc(C(F)(F)F)cc4)cc3)CC2)c(C)cc1OCC(N)=O`, the XC50 is reported as 805 nM. With `COc1ccc(CN(C)CCOc2ccc(NC(=O)c3cccc4c(=O)cc(-c5ccccc5)[nH]c34)cc2)cc1OC` the XC50 was 921 nM. For `Cc1nc(N)nc(N)c1-c1ccc(Br)cc1`, the XC50 was 232 nM. `CN(C)S(=O)(=O)c1ccc(C(=O)N(c2nc(-c3ccccc3)cs2)C2CCCCC2)cc1` gave an XC50 of 760 nM. In the case of `COCCNCc1cccc(-c2cccc(CNC3CCN(Cc4ccccc4)CC3)c2)c1`, the XC50 is reported as 283 nM. In the case of `CN1CCN(c2ccnc3ccc(NC(=O)Nc4cccc5ccccc45)cc23)CC1`, the XC50 is reported as 488 nM. `COc1cccc2sc(N3CCN(C(=O)c4ccc([N+](=O)[O-])o4)CC3)nc12` was tested, and the XC50 was 869 nM. `Cc1ccc(-n2c(Cc3cccc4ccccc34)nnc2SCCC#N)c(C)c1` gave an XC50 of 465 nM. In the case of `Cc1ccccc1C1CCN(c2ccc(C(=O)Nc3ccc(F)cc3)cn2)CC1`, the XC50 is reported as 194 nM. Molecule `Cc1c(Cn2ncc(N3CCC(N)CC3)c(Cl)c2=O)cccc1NC(=O)Nc1ccc(-c2ccccc2)cc1` has an XC50 of 697 nM. Molecule `CCN1CCC2(c3cccc(OC)c3)Cc3nc4ccccc4c(-c4ccccc4)c3CC2C1` (stereo not drawn) has an XC50 of 348 nM. In the case of `O=C(Nc1ccc(Cl)cc1)Nc1ccc(-c2csc(-c3nc4ccccc4[nH]3)c2)cc1`, the XC50 is reported as 799 nM. `N#Cc1ccc2c(c1)CCN(CCC1CCC(NC(=O)c3ccc(-c4ccccn4)s3)CC1)CC2` (stereo not drawn) gave an XC50 of 1010 nM. Molecule `CN1CCN(CCCN(Cc2ccc(-c3cccc(CNCc4ccc5c(c4)OCO5)c3)cc2)C(=O)Nc2ccccc2)CC1` has an XC50 of 183 nM. `O=C(Nc1ccc(Cl)cc1)NC1CCN(CCCCCNC(=O)C2CC2c2ccc(Cl)c(Cl)c2)CC1` (stereo not drawn) gave an XC50 of 576 nM. With `O=S(=O)(Nc1cc2c(cc1OCCCN1CCCCC1)CCNCC2)c1ccc(-c2ccc(Cl)cc2)cc1` the XC50 was 1000 nM. With `OC(CN1CCN(C2CCCCC2)CC1)Cn1c2ccccc2c2cc(Br)ccc21` (stereo not drawn) the XC50 was 857 nM. In the case of `CS(=O)(=O)N(c1ccccc1)c1cc(C(=O)N[C@@H](Cc2ccccc2)[C@H](O)CNC2CCCCC2)cc(N2CCCC2=O)c1`, the XC50 is reported as 78.1 nM. For `COc1cc(NC(=O)Nc2ccc([N+](=O)[O-])cc2OC)c(OC)cc1Cl`, the XC50 was 1470 nM. `Cc1nc(N)nc(N)c1CCCOc1cccc(Cl)c1` showed an XC50 of 476 nM. `COc1ccc2[nH]ccc(=NN=Cc3ccccc3Cl)c2c1` gave an XC50 of 664 nM. `CN1CCCC1CCNC(=O)[C@H](CC1CCCCC1)NC(=O)c1ccc(O)c(-c2ccc(Cl)c(Cl)c2)c1` (stereo partly drawn) was tested, and the XC50 was 736 nM. For `COCCn1c(C)nc2ccccc2c1=O`, the XC50 was 1460 nM. Molecule `CCN(CC)c1ccc2nc(N)nc(N)c2c1Cl` has an XC50 of 30.9 nM. Work on `COc1c(Br)cc(Br)cc1C(C)=O` yielded an XC50 of 989 nM. In the case of `Cc1noc(C)c1-c1cccc(CNCc2cccc(-c3ccc(-c4nc5ccccc5[nH]4)cc3)c2)c1`, the XC50 is reported as 228 nM. `O=C(Nc1cccc(-c2ccc(-c3nc4cc(C(F)(F)F)ccc4[nH]3)s2)c1)c1c[nH]cn1` showed an XC50 of 1110 nM. Work on `O=C(Nc1ccc(Oc2ccccc2)cc1)N(CCN1CCCC1)Cc1ccc(-c2ccc(CN3CCNCC3)cc2)cc1` yielded an XC50 of 892 nM. `N#Cc1c(N2CCCCCC2)nc(N)c2c(N)nc3c(c12)CC(=O)N3c1ccc(F)cc1` was tested, and the XC50 was 213 nM. With `O=C(NC1CCCCC1)N(Cc1ccc(-c2ccc(CNC3CCCC3)cc2)cc1)C1CCN(Cc2ccccc2)CC1` the XC50 was 780 nM.
